Test results taken from PubChem BioAssay (NCI).
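Results reflect a 48-hour exposure of cells in 96-well plates to compound at five concentrations. GI50 = concentration required for 50% inhibition of growth. TGI: total growth inhibition.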

What was measured:
Assay in all cases: DTP human tumour cell line panel, 48 h
BT-549 breast = test system: BT-549 breast
M19-MEL melanoma = test system: M19-MEL melanoma
MDA-N = test system: MDA-N
NCI/ADR-RES ovarian = test system: NCI/ADR-RES ovarian
SNB-78 CNS = test system: SNB-78 CNS
T-47D breast = test system: T-47D breast
XF 498 CNS = test system: XF 498 CNS
DLD-1 colon = test system: DLD-1 colon
RXF-631 renal = test system: RXF-631 renal

| Compound | TGI (BT-549 breast) [µM] | TGI (M19-MEL melanoma) [µM] | TGI (NCI/ADR-RES ovarian) [µM] | TGI (SNB-78 CNS) [µM] | TGI (T-47D breast) [µM] | GI50 (BT-549 breast) [nM] | GI50 (NCI/ADR-RES ovarian) [µM] | GI50 (T-47D breast) [µM] | also measured |
| --- | --- | --- | --- | --- | --- | --- | --- | --- | --- |
| Cc1cc(CS(=O)(=O)/C=C/c2ccccc2[N+](=O)[O-])c(CS(=O)(=O)/C=C/c2ccccc2[N+](=O)[O-])cc1C | 44.4 | > 100 | > 100 | 66.2 | > 100 | – | – | – | TGI (MDA-N): 99.7 µM; TGI (XF 498 CNS): 38.3 µM |
| C/C(=C(/c1ccc(O)cc1)c1ccc(OCCN2CCCC2)cc1)c1ccccc1 | 15.7 | – | 18.3 | – | 7.93 | 4200 | 4.17 | 0.716 | – |
| CCC1OCCN1C(C)C (centres undefined) | – | > 100 | – | > 100 | – | – | – | – | TGI (DLD-1 colon): > 100 µM |
| CC1(CC(=O)O)OC2CCCCCC2O1 (centres undefined) (tested in a mixture with another compound) | > 100 | – | > 100 | – | > 100 | – | – | – | TGI (MDA-N): > 100 µM |
| COC(=O)C12CC(C3CC31)C1CC12 (centres undefined) | – | > 100 | – | – | – | – | – | – | TGI (DLD-1 colon): > 100 µM; TGI (RXF-631 renal): > 100 µM |
| COc1c(O)c(OC)c(C(=O)/C=C/c2ccccc2)c(O)c1OC | – | – | 42.6 | – | 79.7 | – | – | – | TGI (MDA-N): 46 µM |
| COc1ccccc1C(=O)c1cnc(NC2CCN(S(C)(=O)=O)CC2)nc1N | > 25 | – | > 25 | – | > 25 | > 13300 | > 25 | 8.8 | – |
| COc1ccc2nc3ccc(OC)cc3c(SCCCN)c2c1 | 23.4 | – | 37.1 | – | 14.2 | 10500 | 13.1 | 3.08 | – |
| O=C(N[C@@H]1CCCc2ccccc21)[C@H](CCC(=O)N1CCN(C2CCCCC2)CC1)N1C(=O)[C@@H](N2C(=O)OC[C@@H]2c2ccccc2)[C@H]1/C=C/c1ccccc1 | 3.92 | – | 10.6 | – | 14.6 | 1760 | 2.78 | 2.98 | – |
| O=c1c2ccccc2nc(-c2ccccc2)n1NCC1(O)OCC(O)C(O)C1O (centres undefined) | – | > 100 | – | > 100 | – | – | – | – | TGI (DLD-1 colon): > 100 µM |
| COC(=O)/C(C#N)=C1\N=NNN1CCCN1CCOCC1 | – | > 100 | – | > 100 | – | – | – | – | TGI (DLD-1 colon): > 100 µM |
| COc1cc(C(c2cc3c(cc2O)OCO3)N2CCCC2)cc(OC)c1OC (centres undefined) | – | – | 56.4 | – | 45.7 | – | – | – | TGI (MDA-N): 27.9 µM |
| Cc1nnc([S-])s1.[Au+].c1ccc([PH+](c2ccccc2)c2ccccc2)cc1 | 2.88 | – | – | – | 6.12 | 1470 | – | 2.2 | – |
| CC1(C)N=C(N)N=C(N)N1c1ccc(OCC(=O)Nc2cccc(S(=O)(=O)F)c2)c(Cl)c1 | > 100 | – | > 100 | – | > 100 | > 100000 | – | – | – |
| COC(=O)c1c(C)oc2ccc(OC(C)=O)cc12 | – | > 100 | – | > 100 | – | – | – | – | – |
| COc1ccc(C2=CC(c3cc(OC)c(OC)c(OC)c3)n3ncnc3N2)cc1 (centres undefined) | 2.04 | – | 20.3 | – | – | 68.4 | 0.0444 | – | – |
| O=C1c2cccnc2C(=O)c2c1c(C(=O)OCCCN1CCOCC1)c1ccccn21 | 1.82 | – | 2.21 | – | 5.94 | 37.5 | < 0.01 | 0.178 | – |

| Compound | TGI (BT-549 breast) [µM] | TGI (M19-MEL melanoma) [µM] | TGI (NCI/ADR-RES ovarian) [µM] | TGI (SNB-78 CNS) [µM] | TGI (T-47D breast) [µM] | GI50 (BT-549 breast) [nM] | GI50 (NCI/ADR-RES ovarian) [µM] | GI50 (T-47D breast) [µM] | also measured |
| --- | --- | --- | --- | --- | --- | --- | --- | --- | --- |
| CC(CC(=O)O)(CC(=O)O)C(=O)O | > 100 | – | > 100 | – | > 100 | – | – | – | TGI (MDA-N): > 100 µM |
| CCN(CC)CCC(=O)Nc1ccc(Cn2nnc3c2C(=O)c2nnn(Cc4ccc(NC(=O)CCN(CC)CC)cc4)c2C3=O)cc1 | 3.06 | – | > 100 | – | – | 1640 | > 100 | – | – |
| O=C(OCc1ccccc1CN1CCOCC1)c1ccc(Br)cc1 | > 100 | – | > 100 | – | > 100 | – | – | – | – |
| CCCCCCCCCCCCCCCC[N+]1(CC)CCCC1 | – | – | 38.4 | – | 3.93 | – | 12.9 | 0.528 | – |
| C[C@@H](NC(=O)Cc1cc(F)cc(F)c1)C(=O)N[C@@]1(C)N=C(c2ccccc2)c2ccccc2N(C)C1=O | > 66.4 | – | > 90.7 | – | > 66.6 | 9600 | 31.9 | – | – |
| CN1CCCC1c1cccnc1.O=C(O)c1ccccc1O.O=C([O-])c1ccccc1[OH2+].O=C([O-])c1ccccc1[OH2+].O=C([O-])c1ccccc1[OH2+].[Mn+2] (centres undefined) | > 100 | – | > 100 | – | > 100 | 39700 | > 100 | > 100 | GI50 (MDA-N): > 100 µM; TGI (MDA-N): > 100 µM |
| CN1CC2(CCCCC2)C(O)C12C=CCCC2 (centres undefined) | – | > 100 | – | > 100 | – | – | – | – | TGI (DLD-1 colon): > 100 µM; TGI (XF 498 CNS): > 100 µM |
| Cc1cc(N(CCC#N)S(=O)(=O)c2ccccc2)ccc1C=O | – | – | – | > 100 | – | – | – | – | TGI (DLD-1 colon): > 100 µM; TGI (RXF-631 renal): > 100 µM |
| CCOC(=O)CCC1(C(=O)OC)CCCC1=O (centres undefined) | – | > 100 | – | > 100 | – | – | – | – | TGI (DLD-1 colon): > 100 µM; TGI (XF 498 CNS): > 100 µM |
| O=c1oc(-c2ccc(O)c(O)c2)cc2cc(O)cc(O)c12 | 84.8 | – | > 100 | – | > 100 | 26200 | 33.5 | 54.5 | – |
| Cc1ccc(C2=Nc3c(N)ncnc3NC(c3cccc(Nc4ccnc5cc(C(F)(F)F)ccc45)c3)C2)cc1 (centres undefined) | 13.4 | – | 10.2 | – | > 100 | 2830 | 2.96 | 4.45 | – |
| c1ccc2c(c1)CCCc1cc3ccccc3nc1-2 | – | > 100 | – | > 100 | – | – | – | – | TGI (DLD-1 colon): > 100 µM; TGI (XF 498 CNS): > 100 µM |
| CC1OC(=O)N(CCCC=C2SCCCS2)C1=O (centres undefined) | – | > 100 | – | > 100 | – | – | – | – | TGI (XF 498 CNS): > 100 µM |
| COc1cc2oc3ccccc3c(=O)c2cc1CSc1ccccc1N | > 100 | – | > 70.9 | – | 27.8 | – | – | – | TGI (MDA-N): > 100 µM |
| CC(=O)[CH-]C(=O)c1ccccc1.CC(=O)[CH-]C(=O)c1ccccc1.[O]=[U+2]=[O] | – | > 100 | – | – | – | – | – | – | GI50 (DLD-1 colon): 29.7 µM; TGI (DLD-1 colon): > 100 µM; GI50 (M19-MEL melanoma): 28.9 µM |
| O=C(CCCCCCCCC(=O)OCC1OC(n2cnc3c(=O)[nH]cnc32)C(O)C1O)OCC1OC(n2cnc3c(=O)[nH]cnc32)C(O)C1O (centres undefined) | – | > 100 | – | > 100 | – | – | – | – | TGI (DLD-1 colon): > 100 µM; TGI (XF 498 CNS): > 100 µM |
| N#CC1c2ccccc2-c2ccccc2N1C(=O)c1ccccc1 (centres undefined) | 2.54 | – | > 100 | – | > 100 | 507 | 1.81 | 25.7 | – |
